# Experiments:
# [1] = test system: thyroid carcinoma cells (FTC-133); experiment: viability of FTC-133 thyroid carcinoma cells treated with camptothecin or doxorubicin; format: cell-based, human; settings: FTC-133, 5 μM camptothecin or doxorubicin; for viability of the tumor cells: 100 μM peptide
# Procedure: FIG. 2 is a graph illustration showing the role of the peptide 4N1 (KRFYVVMWK (SEQ ID NO: 5), derived from the C-terminal domain of TSP1, and the CD47 receptor on the regulation of apoptosis induced by camptothecin (Cpt) or doxorubicin (Dox). To achieve this, thyroid carcinoma cells (FTC-133) were incubated with 5 μM of one or other of the drugs and 100 μM of test peptide 4N1 with or without B6H12 antibody (100 μg/mL) blocking the CD47 receptor. The same experiment was performed with a control peptide 4NGG (KRFYGGMWK SEQ ID NO:6), which is incapable of binding the CD47.
# The inventors therefore sought to understand the role of the peptide 4N1 and the CD47 receptor in the inhibition of the apoptosis of cancer cells, and in particular the FTC-133 cells of human thyroid carcinoma (Rath et al., 2006).
# TSP1/CD47 complexes = target: T1, TSP1/CD47 complexes (Homo sapiens, UniProt P07996); experiment: immunoprecipitation of TSP1/CD47 complexes with anti-CD47 antibody and Western Blot in MDA-MB-231 cells; format: cell-based; settings: MDA-MB-231 breast cancer cells, 100 μM peptide
# T1 construct: endogenous in cells; host or cells: MDA-MB-231 breast cancer cells
# Procedure: FIG. 5 is a photo illustration showing the inhibition of the biomolecular interaction between the TSP1 and the CD47 receptor of the MDA-MB-231 breast cancer cells. The cells are incubated for 2 hours with […] 100 μM of the antagonist peptide according to the invention. The TSP1/CD47 complexes are then immunoprecipitated using an anti-CD47 antibody, then the presence of TSP1 and CD47 is analyzed using the Western Blot technique.
# Thus, MDA-MB-231 cells corresponding to cells from a breast cancer were incubated for 24 hours with or without the dodecapeptide according to this invention. In particular, the peptide used was the one with sequence:
# Immunoprecipitation of the complexes, with an antibody directed against the CD47, then an analysis of the TSP1 and CD47 proteins by the Western Blot method were then done.
# B16-F1 mouse melanoma = B16-F1 mouse melanoma model in syngeneic C57Bl/6 mice; format: in vivo
# Procedure: FIG. 6 is a photo illustration showing the action of the cyclized antagonist peptide on mouse melanoma cells. After a subcutaneous injection of 250,000 B16-F1 mouse melanoma cells into syngeneic C57Bl/6 mice, intraperitoneal administrations of 10 mg/kg of the antagonist were given on days 3, 5 and 7. The mice were then sacrificed and the tumors photographed on day 20.
# FIG. 7 is a photo illustration corresponding to an MRI analysis of an untreated tumor (on the left) and a tumor treated with the cyclized peptide of interest on day 12. An arrow points to the necrotic area.
# was also tested directly in vivo on a B16-F1 mouse melanoma model injected into syngeneic C57Bl/6 mice.
# FIG. 7 allows a comparison, thanks to a magnetic resonance imaging (RMI) analysis, of the tumor taken from the animal not treated with the tumor taken from the animal treated with the cyclized peptide by means of a disulfide bridge on day 12 after the injection of the tumor cells.
# [2] = test system: follicular thyroid carcinoma cells; experiment: caspase-3 activity (marker of apoptosis) in follicular thyroid carcinoma cells treated with camptothecin or doxorubicin; format: cell-based, human; settings: in the presence of doxorubicin or camptothecin, with vs without TSP1
# Procedure: FIG. 1 is a graph illustration showing the caspase-3 activity, a marker of apoptosis, obtained by measuring the quantity of para-nitroaniline released per hour per μg of protein (y-axis). The caspase-3 activity is measured on follicular thyroid carcinoma cells in the presence of an anticancer molecule inducing apoptosis, camptothecin (Cpt) or doxorubicin (Dox) in the presence or absence of TSP1.
# The latter therefore reduces the rate of apoptosis of the thyroid carcinoma cells subjected to an anti-cancer therapy.
# T1 sequence (P07996 19-1170, one chain of several): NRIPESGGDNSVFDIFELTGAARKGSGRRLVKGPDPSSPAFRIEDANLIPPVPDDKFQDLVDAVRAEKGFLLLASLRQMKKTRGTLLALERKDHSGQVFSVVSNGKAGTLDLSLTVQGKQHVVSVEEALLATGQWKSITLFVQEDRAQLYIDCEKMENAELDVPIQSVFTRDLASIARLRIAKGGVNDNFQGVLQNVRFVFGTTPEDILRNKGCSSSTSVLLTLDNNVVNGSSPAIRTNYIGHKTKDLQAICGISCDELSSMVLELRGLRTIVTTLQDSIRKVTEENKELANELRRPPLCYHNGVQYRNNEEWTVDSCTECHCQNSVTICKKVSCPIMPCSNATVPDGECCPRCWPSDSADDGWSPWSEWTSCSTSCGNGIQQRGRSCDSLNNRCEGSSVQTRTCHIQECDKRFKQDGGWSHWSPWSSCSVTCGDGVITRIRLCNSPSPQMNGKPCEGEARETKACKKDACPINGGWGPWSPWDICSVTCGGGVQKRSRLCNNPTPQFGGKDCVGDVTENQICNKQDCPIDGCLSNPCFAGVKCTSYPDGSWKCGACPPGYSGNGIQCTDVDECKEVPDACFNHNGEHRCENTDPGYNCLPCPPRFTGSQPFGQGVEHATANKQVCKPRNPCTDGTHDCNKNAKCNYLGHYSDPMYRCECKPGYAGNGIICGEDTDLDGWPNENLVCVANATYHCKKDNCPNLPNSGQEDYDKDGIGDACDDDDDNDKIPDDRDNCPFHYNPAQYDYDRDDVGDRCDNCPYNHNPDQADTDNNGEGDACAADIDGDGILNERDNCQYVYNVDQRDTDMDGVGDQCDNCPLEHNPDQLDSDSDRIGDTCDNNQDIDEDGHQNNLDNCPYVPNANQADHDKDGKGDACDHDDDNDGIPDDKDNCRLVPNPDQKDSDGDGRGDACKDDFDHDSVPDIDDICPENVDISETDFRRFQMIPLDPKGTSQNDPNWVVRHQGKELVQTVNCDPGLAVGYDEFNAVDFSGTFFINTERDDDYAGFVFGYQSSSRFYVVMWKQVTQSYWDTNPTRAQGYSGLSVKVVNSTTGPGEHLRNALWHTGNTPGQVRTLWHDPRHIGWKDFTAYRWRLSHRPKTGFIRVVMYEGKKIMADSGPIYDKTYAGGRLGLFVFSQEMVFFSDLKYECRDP
Substance,viability of the tumor cells [1],TSP1 detected by Western Blot after immunoprecipitation with anti-CD47 antibody (TSP1/CD47 interaction) (TSP1/CD47 complexes),also measured
KRFYGGMWK [4NGG],does not have any effect,,
CEVSQLLKGDAC [SEQ ID NO: 2],,prevents the molecular interaction between the TSP1 protein and the CD47 receptor,"mice showing a large necrotic area located in the tumor (B16-F1 mouse melanoma; 10 mg/kg intraperitoneal on days 3, 5 and 7, tumors on day 20): 4/8; necrotic area in the tumor by MRI analysis (B16-F1 mouse melanoma; day 12 after the injection of the tumor cells): has a necrotic area"
KRFYVVMWK [4N1],viability of the tumor cells is greater,,protection of the tumor cells against the anti-cancer drugs ([1]; 100 μM peptide plus B6H12 antibody (100 μg/mL) blocking CD47): no longer protects the tumor cells
"TSP1: thrombospondin-1, extracellular matrix glycoprotein binding the CD47 receptor",,,caspase-3 activity (para-nitroaniline released per hour per μg of protein) [2]: inhibited considerably
IEVSQLLKGDAS (Antagonist peptide of the bond between a receptor CD47 and a protein belonging to the thrombospondin family) [SEQ ID NO: 1],,TSP1 is no longer detected,

# Source: patent US9605025B2, “Antagonist peptide of the bond between CD47 and a protein belonging to the thrombospondin family” (Universite de Reims Champagne Ardenne, priority 2011, dated 2017)
